Laboratory results reported in PubChem BioAssay AID1259411 (Chemical Carcinogenesis Research Information System (CCRIS), 2018).
Calls of active or inactive are those of the source. The rule behind the calls is not given here.

Tested on: rodent carcinogenicity bioassays, tumor incidence
Assay: CCRIS carcinogenicity studies
Outline: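 Archive of carcinogenicity, mutagenicity, tumor promotion and tumor inhibition results drawn from journals, NCI reports and other sources, expert-reviewed; covers 1985-2011 and is no longer updated.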

In the case of `FC(F)Cl`, the carcinogen call (Species: MOUSE, Strain/Sex: SWISS/FEMALE, Route: INHALATION, Dose: 0, 1000, 5000 PPM 4 HR/D 5 D/WK FOR 78 WK (STUDY DURATION: LIFETIME), Dose: 0, 1000, 5000 PPM 4 HR/D 5 D/WK FOR 78 WK (STUDY DURATION: LIFETIME)) is reported as “inactive; negative”, the carcinogen call (Species: MOUSE, Strain/Sex: SWISS/MALE, Route: INHALATION, Dose: 0, 1000, 5000 PPM 4 HR/D 5 D/WK FOR 78 WK (STUDY DURATION: LIFETIME), Dose: 0, 1000, 5000 PPM 4 HR/D 5 D/WK FOR 78 WK (STUDY DURATION: LIFETIME)) is reported as “inactive; negative” and the carcinogen call (Species: RAT, Strain/Sex: SPRAGUE-DAWLEY/FEMALE, Route: INHALATION, Dose: 0, 1000, 5000 PPM 4 HR/D 5 D/WK FOR 104 WK (STUDY DURATION: LIFETIME), Dose: 0, 1000, 5000 PPM 4 HR/D 5 D/WK FOR 104 WK (STUDY DURATION: LIFETIME)) is reported as “inactive; negative”. For the same molecule, the carcinogen call (Species: RAT, Strain/Sex: SPRAGUE-DAWLEY/FEMALE, Route: INHALATION, Dose: 0, 1000, 5000 PPM IN AIR 4 HR/D 5 D/WK FOR 104 WK (STUDY DURATION: LIFETIME), Dose: 0, 1000, 5000 PPM IN AIR 4 HR/D 5 D/WK FOR 104 WK (STUDY DURATION: LIFETIME), Tumor Site: Type of Lesion: [BRAIN WAS ONLY SITE EVALUATED]) was “inactive; negative”, the carcinogen call (Species: RAT, Strain/Sex: SPRAGUE-DAWLEY/MALE, Route: INHALATION, Dose: 0, 1000, 5000 PPM 4 HR/D 5 D/WK FOR 104 WK (STUDY DURATION: LIFETIME), Dose: 0, 1000, 5000 PPM 4 HR/D 5 D/WK FOR 104 WK (STUDY DURATION: LIFETIME)) was “inactive; negative” and the carcinogen call (Species: RAT, Strain/Sex: SPRAGUE-DAWLEY/MALE, Route: INHALATION, Dose: 0, 1000, 5000 PPM IN AIR 4 HR/D 5 D/WK FOR 104 WK (STUDY DURATION: LIFETIME), Dose: 0, 1000, 5000 PPM IN AIR 4 HR/D 5 D/WK FOR 104 WK (STUDY DURATION: LIFETIME), Tumor Site: Type of Lesion: [BRAIN WAS ONLY SITE EVALUATED]) was “inactive; negative”.

With `ClC1=C(Cl)[C@]2(Cl)[C@@H]3[C@H]4C[C@H]([C@@H]5O[C@H]45)[C@@H]3[C@@]1(Cl)C2(Cl)Cl` the carcinogen call (Species: MOUSE, Strain/Sex: B6C3F1/FEMALE, Route: ORAL, Dose: 0, 2.5, 5 PPM IN DIET, TWA, Dose: 0, 2.5, 5 PPM IN DIET, TWA) was “inactive; negative”, the carcinogen call (Species: MOUSE, Strain/Sex: B6C3F1/MALE, Route: ORAL, Dose: 0, 1.6, 3.2 PPM IN DIET, TWA, Dose: 0, 1.6, 3.2 PPM IN DIET, TWA) was “inactive; negative” and the carcinogen call (Species: RAT, Strain/Sex: OSBORNE-MENDEL/FEMALE, Route: ORAL, Dose: 0, 3, 6 PPM IN DIET, TWA, Dose: 0, 3, 6 PPM IN DIET, TWA) was “inactive; negative”. The carcinogen call (Species: RAT, Strain/Sex: OSBORNE-MENDEL/MALE, Route: ORAL, Dose: 0, 2.5, 5 PPM IN DIET, TWA, Dose: 0, 2.5, 5 PPM IN DIET, TWA) was “inactive; negative”.

With `CO[C@H]1C[C@]2(C)[C@@H](O)CC[C@H]2[C@@H]2CCc3cc(O)ccc3[C@H]21` the carcinogen call (Species: HAMSTER, Strain/Sex: SYRIAN/MALE, Route: SUBCUTANEOUS IMPLANT, Dose: 0, 20 MG IN PELLETS IMPLANTED EVERY 2.5 MO FOR 9 MO (STUDY DURATION: 9 MO), Tumor Site: Type of Lesion: KIDNEY: TUMOR) was “active; positive”.

In the case of `C[C@]12CC[C@H]3[C@@H](CCC4=CC(=O)CC[C@@]43C)[C@@H]1CC[C@@H]2O`, the carcinogen call (Species: MOUSE, Route: SUBCUTANEOUS IMPLANT, Tumor Site: Type of Lesion: MAMMARY GLAND, VAGINA) is reported as “active; positive” and the carcinogen call (Species: MOUSE, Route: SUBCUTANEOUS, Tumor Site: Type of Lesion: GENITAL TRACT) is reported as “active; positive”.

With `C=CC(OCC)OCC` the carcinogen call (Species: HAMSTER, Strain/Sex: SYRIAN/MALE, Route: GAVAGE, Dose: 0, 2 MG/WK FOR 54 OR 64 WK (STUDY DURATION: 92 WK)) was “inactive; negative”, the carcinogen call (Species: RAT, Strain/Sex: F344/FEMALE, Route: ORAL, Dose: 0, 470, 1200 MG/L IN DRINKING WATER 5 D/WK FOR 100 WK (STUDY DURATION: 130 WK), Dose: 0, 470, 1200 MG/L IN DRINKING WATER 5 D/WK FOR 100 WK (STUDY DURATION: 130 WK)) was “inactive; negative” and the carcinogen call (Species: RAT, Strain/Sex: F344/MALE, Route: ORAL, Dose: 0, 470, 1200 MG/L IN DRINKING WATER 5 D/WK FOR 100 WK (STUDY DURATION: 130 WK), Dose: 0, 470, 1200 MG/L IN DRINKING WATER 5 D/WK FOR 100 WK (STUDY DURATION: 130 WK)) was “inactive; negative”.

With `CC(O)COC(C)(C)C` (centres undefined) the carcinogen call (Species: MOUSE, Strain/Sex: B6C3F1/FEMALE, Route: INHALATION, Dose: 0, 75, 300, 1200 PPM 6 HR/D, 5 D/WK FOR 104 WKS, Dose: 0, 75, 300, 1200 PPM 6 HR/D, 5 D/WK FOR 104 WKS, Tumor Site: Type of Lesion: LIVER: HEPATOCELLULAR ADENOMA, CARCINOMA OR HEPATOBLASTOMA) was “active; positive”, the carcinogen call (Species: MOUSE, Strain/Sex: B6C3F1/MALE, Route: INHALATION, Dose: 0, 75, 300, 1200 PPM 6 HR/D, 5 D/WK FOR 104 WKS, Dose: 0, 75, 300, 1200 PPM 6 HR/D, 5 D/WK FOR 104 WKS, Tumor Site: Type of Lesion: LIVER: HEPATOCELLULAR ADENOMA, CARCINOMA OR HEPATOBLASTOMA) was “active; positive” and the carcinogen call (Species: RAT, Strain/Sex: F344/N/FEMALE, Route: INHALATION, Dose: 0, 75, 300, 1200 PPM 6 HR/D, 5 D/WK FOR 104 WKS, Dose: 0, 75, 300, 1200 PPM 6 HR/D, 5 D/WK FOR 104 WKS) was “inactive; negative”. For the same molecule, the carcinogen call (Species: RAT, Strain/Sex: F344/N/MALE, Route: INHALATION, Dose: 0, 75, 300, 1200 PPM 6 HR/D, 5 D/WK FOR 104 WKS, Dose: 0, 75, 300, 1200 PPM 6 HR/D, 5 D/WK FOR 104 WKS, Tumor Site: Type of Lesion: NO STATISTICALLY SIGNIFICANT INCREASE IN TUMORS BUT KIDNEY TUBULE TUMORS INCREASED SLIGHTLY) was “equivocal”.

With `CC[C@H]1OC(=O)[C@H](C)[C@@H](O[C@H]2C[C@@](C)(OC)[C@@H](O)[C@H](C)O2)[C@H](C)[C@@H](O[C@@H]2O[C@H](C)C[C@H](N(C)C)[C@H]2O)[C@](C)(O)C[C@@H](C)C(=O)[C@H](C)[C@@H](O)[C@]1(C)O` the carcinogen call (Species: MOUSE, Strain/Sex: B6C3F1/FEMALE, Route: ORAL, Dose: 0, 2500, 5000 PPM IN FEED FOR 103 WK (STUDY DURATION: 104 WK), Dose: 0, 2500, 5000 PPM IN FEED FOR 103 WK (STUDY DURATION: 104 WK)) was “inactive; negative”, the carcinogen call (Species: MOUSE, Strain/Sex: B6C3F1/MALE, Route: ORAL, Dose: 0, 2500, 5000 PPM IN FEED FOR 103 WK (STUDY DURATION: 104 WK), Dose: 0, 2500, 5000 PPM IN FEED FOR 103 WK (STUDY DURATION: 104 WK)) was “inactive; negative” and the carcinogen call (Species: RAT, Strain/Sex: F344/FEMALE, Route: ORAL, Dose: 0, 5000, 10000 PPM IN FEED FOR 103 WK (STUDY DURATION: 104 WK), Dose: 0, 5000, 10000 PPM IN FEED FOR 103 WK (STUDY DURATION: 104 WK)) was “inactive; negative”. The carcinogen call (Species: RAT, Strain/Sex: F344/MALE, Route: ORAL, Dose: 0, 5000, 10000 PPM IN FEED FOR 103 WK (STUDY DURATION: 104 WK), Dose: 0, 5000, 10000 PPM IN FEED FOR 103 WK (STUDY DURATION: 104 WK)) was “inactive; negative”.
